Test results from patent US10975119B2, “Selective cysteine protease inhibitors and uses thereof” (Genesis Technologies Limited, priority 2011, dated 2021).
Read-outs that look alike come from different tables or passages of the source.

How the values were obtained:
Type in all cases: biochemical
Caspase-3 = biological target: T1, Caspase-3 (Homo sapiens, UniProt P42574); test: Caspase-3 inhibitor screening assay (BioVision kit, DEVD-AFC); conditions: for inhibition at 10 µM: read-out: % Inhibition at 10 uM Casp3; for inhibition at 100 µM: read-out: % Inhibition at 100 uM Casp3
T1 construct: mixing the compounds with the respective active caspases; purchased BioVision K153-100
T1 sequence (P42574 29-175 limits assumed): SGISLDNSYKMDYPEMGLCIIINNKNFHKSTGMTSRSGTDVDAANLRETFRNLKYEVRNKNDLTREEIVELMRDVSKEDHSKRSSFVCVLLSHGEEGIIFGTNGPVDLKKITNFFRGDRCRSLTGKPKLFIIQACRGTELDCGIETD
T1 sequence (P42574 176-277 limits assumed): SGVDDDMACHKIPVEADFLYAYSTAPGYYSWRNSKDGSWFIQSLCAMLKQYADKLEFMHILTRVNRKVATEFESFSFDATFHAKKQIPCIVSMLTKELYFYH
Summary of the method: (§1)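 Fluorometric read-out of free AFC released from the caspase-specific synthetic substrate. IC50 from concentration series, sometimes narrower.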

Caspase-7 = biological target: T2, Caspase-7 (Homo sapiens, UniProt P55210); test: Caspase-7 inhibitor screening assay (BioVision kit, DEVD-AFC); conditions: for inhibition at 10 µM: read-out: % Inhibition at 10 uM Casp7; for inhibition at 100 µM: read-out: % Inhibition at 100 uM Casp7; for IC50: read-out: IC50 Casp7
T2 construct: mixing the compounds with the respective active caspases; purchased BioVision K157-100
T2 sequence (P55210 24-198 limits assumed): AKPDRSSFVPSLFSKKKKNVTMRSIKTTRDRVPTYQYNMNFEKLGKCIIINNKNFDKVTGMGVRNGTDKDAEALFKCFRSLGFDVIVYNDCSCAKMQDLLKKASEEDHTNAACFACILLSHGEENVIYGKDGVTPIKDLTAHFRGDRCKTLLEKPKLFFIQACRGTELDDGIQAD
T2 sequence (P55210 207-303 limits assumed): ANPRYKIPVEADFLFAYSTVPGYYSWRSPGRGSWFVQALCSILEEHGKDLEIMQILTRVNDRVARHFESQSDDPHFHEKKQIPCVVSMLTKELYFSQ
Summary of the method: as §1

Caspase-5 = biological target: T3, Caspase-5 (Homo sapiens, UniProt P51878); test: Caspase-5 inhibitor screening assay (BioVision kit, WEHD-AFC); conditions: for inhibition at 10 µM: read-out: % Inhibition at 10 uM Casp5; for inhibition at 100 µM: read-out: % Inhibition at 100 uM Casp5; for IC50: read-out: IC50 Casp5
T3 construct: mixing the compounds with the respective active caspases; purchased BioVision K155-100
T3 sequence (P51878 137-327 limits assumed): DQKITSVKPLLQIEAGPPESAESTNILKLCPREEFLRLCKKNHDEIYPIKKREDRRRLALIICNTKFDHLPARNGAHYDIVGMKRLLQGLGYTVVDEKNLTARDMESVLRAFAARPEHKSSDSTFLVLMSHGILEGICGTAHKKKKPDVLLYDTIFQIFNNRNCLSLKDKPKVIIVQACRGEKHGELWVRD
T3 sequence (P51878 347-434 limits assumed): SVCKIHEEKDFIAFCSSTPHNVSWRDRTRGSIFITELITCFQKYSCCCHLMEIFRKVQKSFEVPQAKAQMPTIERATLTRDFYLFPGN
Summary of the method: as §1

Caspase-1 = biological target: T4, Caspase-1 (Homo sapiens, UniProt P29466); test: Caspase-1 inhibitor screening assay (BioVision kit, YVAD-AFC); conditions: for inhibition at 10 µM: read-out: % Inhibition at 10 uM Casp1; for inhibition at 100 µM: read-out: % Inhibition at 100 uM Casp1; for IC50: read-out: IC50 Casp1
T4 construct: mixing the compounds with the respective active caspases; purchased BioVision K151-100
T4 sequence (P29466 120-297 limits assumed): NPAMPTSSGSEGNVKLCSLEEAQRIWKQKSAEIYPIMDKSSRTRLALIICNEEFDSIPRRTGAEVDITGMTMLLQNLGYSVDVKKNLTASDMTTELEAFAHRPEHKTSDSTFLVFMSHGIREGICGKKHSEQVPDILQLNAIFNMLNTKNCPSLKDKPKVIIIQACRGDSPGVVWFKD
T4 sequence (P29466 317-404 limits assumed): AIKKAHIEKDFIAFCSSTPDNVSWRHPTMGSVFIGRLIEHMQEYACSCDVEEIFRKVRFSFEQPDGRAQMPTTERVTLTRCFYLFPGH
Summary of the method: as §1

Caspase-10 = biological target: T5, Caspase-10 (Homo sapiens, UniProt Q92851); test: Caspase-10 inhibitor screening assay (BioVision kit, AEVD-AFC); conditions: for inhibition at 10 µM: read-out: % Inhibition at 10 uM Casp10; for inhibition at 100 µM: read-out: % Inhibition at 100 uM Casp10; for IC50: read-out: IC50 Casp10
T5 construct: mixing the compounds with the respective active caspases; purchased BioVision K160-100
T5 sequence (Q92851 220-415 limits assumed): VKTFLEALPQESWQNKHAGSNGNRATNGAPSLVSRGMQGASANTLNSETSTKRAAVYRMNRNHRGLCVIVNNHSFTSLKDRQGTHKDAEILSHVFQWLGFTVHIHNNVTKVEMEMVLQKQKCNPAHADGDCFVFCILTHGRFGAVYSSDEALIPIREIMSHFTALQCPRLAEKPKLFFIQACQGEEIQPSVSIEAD
T5 sequence (Q92851 416-521 limits assumed): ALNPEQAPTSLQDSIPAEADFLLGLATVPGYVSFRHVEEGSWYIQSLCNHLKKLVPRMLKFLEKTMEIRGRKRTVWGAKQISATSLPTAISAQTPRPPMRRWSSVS
Summary of the method: as §1

Caspase-8 = biological target: T6, Caspase-8 (Homo sapiens, UniProt Q14790); test: Caspase-8 inhibitor screening assay (BioVision kit, IETD-AFC); conditions: for inhibition at 10 µM: read-out: % Inhibition at 10 uM Casp8; for inhibition at 100 µM: read-out: % Inhibition at 100 uM Casp8; for IC50: read-out: IC50 Casp8
T6 construct: mixing the compounds with the respective active caspases; purchased BioVision K158-100
Summary of the method: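 Each caspase cleaved its own AFC-labelled peptide substrate, and released AFC was read by fluorescence. % inhibition came from RFU against an uninhibited control.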

Caspase-6 = biological target: T7, Caspase-6 (Homo sapiens, UniProt P55212); test: Caspase-6 inhibitor screening assay (BioVision kit, VEID-AFC); conditions: for inhibition at 10 µM: read-out: % Inhibition at 10 uM Casp6; for inhibition at 100 µM: read-out: % Inhibition at 100 uM Casp6; for IC50: read-out: IC50 Casp6
T7 construct: mixing the compounds with the respective active caspases; purchased BioVision K156-100
T7 sequence (P55212 24-179 limits assumed): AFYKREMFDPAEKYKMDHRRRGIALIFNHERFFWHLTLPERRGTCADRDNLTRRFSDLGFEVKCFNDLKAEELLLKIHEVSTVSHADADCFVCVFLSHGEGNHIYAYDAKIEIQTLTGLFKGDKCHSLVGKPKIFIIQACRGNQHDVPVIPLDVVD
T7 sequence (P55212 194-293 limits assumed): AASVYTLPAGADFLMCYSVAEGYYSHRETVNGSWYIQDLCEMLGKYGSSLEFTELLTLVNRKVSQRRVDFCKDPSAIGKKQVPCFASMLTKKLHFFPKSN
Summary of the method: as §1

T6 sequence (Q14790 217-374 limits assumed): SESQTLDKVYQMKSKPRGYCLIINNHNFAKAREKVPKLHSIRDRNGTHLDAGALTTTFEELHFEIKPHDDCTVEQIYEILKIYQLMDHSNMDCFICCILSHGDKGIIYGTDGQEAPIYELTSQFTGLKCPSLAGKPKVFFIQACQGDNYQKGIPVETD
T6 sequence (Q14790 385-479 limits assumed): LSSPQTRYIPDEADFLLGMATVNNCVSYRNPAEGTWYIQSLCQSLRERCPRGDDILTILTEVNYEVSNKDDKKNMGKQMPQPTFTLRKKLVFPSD

Row | Structure (SMILES) | inhibition at 10 µM (Caspase-3) [%] | inhibition at 100 µM (Caspase-3) [%] | IC50 (Caspase-3; read-out: IC50 Casp3) [µM] | inhibition at 10 µM (Caspase-7) [%] | inhibition at 100 µM (Caspase-7) [%] | IC50 (Caspase-7) [µM] | inhibition at 10 µM (Caspase-5) [%] | inhibition at 100 µM (Caspase-5) [%] | IC50 (Caspase-5) [µM] | inhibition at 10 µM (Caspase-1) [%] | inhibition at 100 µM (Caspase-1) [%] | IC50 (Caspase-1) [µM] | inhibition at 10 µM (Caspase-10) [%] | inhibition at 100 µM (Caspase-10) [%] | IC50 (Caspase-10) [µM] | inhibition at 10 µM (Caspase-8) [%] | inhibition at 100 µM (Caspase-8) [%] | IC50 (Caspase-8) [µM] | inhibition at 10 µM (Caspase-6) [%] | inhibition at 100 µM (Caspase-6) [%] | also measured
1 | CC(C)(C)[C@H](NC(=O)c1ccc2ccccc2n1)C(=O)N1CC[C@@H]1C(=O)N[C@H](/C=C/S(C)(=O)=O)CC(=O)O [Compound 20, 2-Quinoline carbonyl-t-Leu-(Azetidine-2-carbonyl)-Asp methyl vinyl sulfone] | 1 | 5 | > 100 | 0 | 0 | > 100 | 55 | 96 | 8.39 | 81 | 99 | 1.4 | 42 | 93 | 12.5 | 8 | 23 | > 100 | 0 | 0 | IC50 (Caspase-6): > 100 µM
2 | CC(C)(C)OC(=O)CC[C@H](NC(=O)OC(C)(C)C)C(=O)N[C@H](/C=C/S(C)(=O)=O)CC(=O)OC(C)(C)C [Compound 21, Boc-Glu(O—tBu)-Asp (O—tBu)-methyl vinyl sulfone] | 0 | 4 | > 100 | 0 | 0 | > 100 | 3 | 7 | > 100 | 2 | 2 | > 100 | 0 | 0 | > 100 | 3 | 4 | > 100 | 1 | 10 | IC50 (Caspase-6): > 100 µM
3 | CS(=O)(=O)/C=C/[C@H](CC(=O)O)NC(=O)[C@@H](N)CCC(=O)O [Compound 22, Glu-Asp methylsulfone] | 0 | 0 | > 100 | 0 | 0 | > 100 | 11 | 0 | > 100 | 0 | 0 | > 100 | 15 | 14 | > 100 | 3 | 7 | > 100 | 1 | 0 | IC50 (Caspase-6): > 100 µM
4 | CS(=O)(=O)/C=C/[C@H](CC(=O)O)NC(=O)[C@H]1CCC(=O)N1 [Compound 24, (2-Pyrrolidinone-5-carbonyl)-Asp methyl vinyl sulfone] | 0 | 0 | > 100 | 1 | 0 | > 100 | 0 | 0 | > 100 | 3 | 10 | > 100 | 21 | 15 | > 100 | 0 | 0 | > 100 | 0 | 0 | IC50 (Caspase-6): > 100 µM

Continued, in another order:

Row | inhibition at 10 µM (Caspase-3) [%] | inhibition at 100 µM (Caspase-3) [%] | IC50 (Caspase-3; read-out: IC50 Casp3) [µM] | inhibition at 10 µM (Caspase-7) [%] | inhibition at 100 µM (Caspase-7) [%] | IC50 (Caspase-7) [µM] | inhibition at 10 µM (Caspase-5) [%] | inhibition at 100 µM (Caspase-5) [%] | IC50 (Caspase-5) [µM] | inhibition at 10 µM (Caspase-1) [%] | inhibition at 100 µM (Caspase-1) [%] | IC50 (Caspase-1) [µM] | inhibition at 10 µM (Caspase-10) [%] | inhibition at 100 µM (Caspase-10) [%] | IC50 (Caspase-10) [µM] | inhibition at 10 µM (Caspase-8) [%] | inhibition at 100 µM (Caspase-8) [%] | IC50 (Caspase-8) [µM] | inhibition at 10 µM (Caspase-6) [%] | inhibition at 100 µM (Caspase-6) [%] | Structure (SMILES) | also measured
5 | 68 | 95 | 3.4 | 68 | 97 | 6.12 | 8 | 50 | ~100 | 55 | 92 | 8 | 43 | 92 | 12.9 | 22 | 79 | 32.5 | 0 | 2 | CS(=O)(=O)/C=C/[C@H](CC(=O)O)NC(=O)[C@H]1CCCN1C(=O)[C@@H](NC(=O)[C@H](CC(=O)O)NC(=O)OCc1ccccc1)c1ccccc1 [Compound 30, Z-Asp-Phenylglycine-Pro-Asp-methyl vinyl sulfone] | IC50 (Caspase-3; read-out: potency (IC50) against caspase-3): 3.41 µM; IC50 (Caspase-6): > 100 µM
6 | 96 | 100 | 0.28 | 97 | 100 | 0.55 | 23 | 77 | 35.2 | 44 | 86 | 13.3 | 97 | 100 | 0.42 | 69 | 98 | 4.08 | 0 | 1 | CC(C)(C)[C@@H](NC(=O)[C@H](CC(=O)O)NC(=O)OCc1ccccc1)C(=O)N1CC[C@@H]1C(=O)N[C@H](/C=C/S(C)(=O)=O)CC(=O)O [Compound 32, Z-Asp-t-Leu-(Azetidine-2-carbonyl)-Asp-methyl vinyl sulfone] | potency against caspase-3 relative to compound 26, in words (Caspase-3; replacement of Pro at P2 of compound 26): did not affect the potency against caspase-3; IC50 (Caspase-6): > 100 µM
7 | 98 | 100 | 0.09 | 95 | 99 | 0.85 | 14 | 50 | 25.4 | 75 | 94 | 3.8 | 31 | 98 | 18.6 | 0 | 33 | > 100 | 0 | 19 | CC(C)[C@H](NC(=O)[C@H](Cc1cn(C)c2ccccc12)NC(=O)[C@H](CC(=O)O)NC(=O)OCc1ccccc1)C(=O)N[C@H](/C=C/S(C)(=O)=O)CC(=O)O [Compound 36, Z-Asp-Trp(N-Me)-Val-Asp-methyl vinyl sulfone] | IC50 (Caspase-6): > 100 µM
